Data set [1] can be described thus: Induction of nitric oxide release at pH 7.4 PBS after 1.5 hrs. The note with it: buffer, pH 7.4, 1.5 h. The class given is physicochemical.
In another data set the test system is Serum. As to the kind of experiment: Induction of nitric oxide release in rat serum at pH 7.4 after 1.5 hrs. Conditions: pH 7.4, 1.5 h. Format: cell-free.
The subject of another data set is Rattus norvegicus. As to the kind of experiment: Antiinflammatory activity in po dosed rat assessed as inhibition of carrageenan-induced paw edema after 3 hrs. The class given is functional. Conditions: read-out: ID50 (the source's name). On the technique in general: In the carrageenan paw model, swelling and tenderness develop within hours.
Data set [2] addresses Prostaglandin G/H synthase 1 (Homo sapiens) (UniProt P23219). Conditions: at 100 µM.
Description: Inhibition of COX1 at 100 uM
The target of data set [3] is T1, Prostaglandin G/H synthase 2 (Homo sapiens) (UniProt P35354).
T1 sequence (whole entry): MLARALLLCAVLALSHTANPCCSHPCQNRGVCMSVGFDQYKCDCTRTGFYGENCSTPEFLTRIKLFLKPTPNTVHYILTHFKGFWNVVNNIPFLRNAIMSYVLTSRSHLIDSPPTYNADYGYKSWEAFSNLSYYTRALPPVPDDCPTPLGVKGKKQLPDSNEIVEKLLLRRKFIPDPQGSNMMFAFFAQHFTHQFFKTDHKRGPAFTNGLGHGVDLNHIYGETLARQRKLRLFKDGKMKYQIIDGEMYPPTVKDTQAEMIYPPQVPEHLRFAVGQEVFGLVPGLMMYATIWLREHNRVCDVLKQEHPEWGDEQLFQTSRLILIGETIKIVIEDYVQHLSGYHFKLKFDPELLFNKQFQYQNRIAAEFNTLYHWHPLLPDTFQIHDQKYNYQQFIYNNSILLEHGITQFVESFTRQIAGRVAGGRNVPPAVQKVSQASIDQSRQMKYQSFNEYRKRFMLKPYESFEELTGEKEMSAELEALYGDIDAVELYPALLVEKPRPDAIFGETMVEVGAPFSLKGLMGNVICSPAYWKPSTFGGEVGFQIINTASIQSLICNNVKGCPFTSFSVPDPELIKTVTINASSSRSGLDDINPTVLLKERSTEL
Conditions: at 100 µM.
Description: Inhibition of COX2 at 100 uM

As a reminder, the inhibition is the share of the control response that was lost under treatment. Low readings indicate little suppression, high ones strong suppression.

Prostaglandin G/H synthase 1 (Homo sapiens), sequence (P23219 whole entry): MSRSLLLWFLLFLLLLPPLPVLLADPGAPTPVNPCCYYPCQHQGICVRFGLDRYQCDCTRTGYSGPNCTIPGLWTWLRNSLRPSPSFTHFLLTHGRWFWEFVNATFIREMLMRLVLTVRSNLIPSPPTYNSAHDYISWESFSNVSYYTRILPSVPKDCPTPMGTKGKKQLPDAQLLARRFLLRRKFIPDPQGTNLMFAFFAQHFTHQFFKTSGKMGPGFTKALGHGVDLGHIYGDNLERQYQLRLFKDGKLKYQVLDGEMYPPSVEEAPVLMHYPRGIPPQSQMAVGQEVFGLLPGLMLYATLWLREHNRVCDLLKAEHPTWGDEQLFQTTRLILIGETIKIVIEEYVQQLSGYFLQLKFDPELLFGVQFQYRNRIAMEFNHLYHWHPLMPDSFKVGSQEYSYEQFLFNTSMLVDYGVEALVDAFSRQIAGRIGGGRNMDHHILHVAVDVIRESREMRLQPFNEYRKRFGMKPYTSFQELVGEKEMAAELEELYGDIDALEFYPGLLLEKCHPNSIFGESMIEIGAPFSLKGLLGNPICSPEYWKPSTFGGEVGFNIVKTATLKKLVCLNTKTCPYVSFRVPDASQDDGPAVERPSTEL

For the compound `CN(CCO)/[N+]([O-])=N/[O-].[Na+]`, the values for the Activity (in data set [1]; in the data set on Serum) were 84.5% and 85%, respectively.
In the case of `CS(=O)(=O)c1ccc(-n2nc(C(=O)O)cc2-c2ccc(F)cc2)cc1`, the ED50 with Rattus norvegicus turned out to be 104 mg/kg.
With `CC(=O)OCO/N=[N+](\[O-])N(C)CCOC(=O)c1cc(-c2ccc(F)cc2)n(-c2ccc(S(C)(=O)=O)cc2)n1`, the Activity in data set [1] was found to be 9.3%; in the data set on Serum it was 73.6%.
For `Cc1ccc(-c2cc(C(=O)O)nn2-c2ccc(S(C)(=O)=O)cc2)cc1`, the ED50 in the data set with Rattus norvegicus was 85.2 mg/kg.
Take `CCOC(=O)c1cc(-c2ccc(C)cc2)n(-c2ccc(S(N)(=O)=O)cc2)n1`: the results for the inhibition in data set [2] and in data set [3] were 66% and 43%, respectively.
Consider `CC(=O)OCO/N=[N+](\[O-])N(C)CCOC(=O)c1cc(-c2ccc(C)cc2)n(-c2ccc(S(C)(=O)=O)cc2)n1`, for which the results for the Activity (in data set [1]; with Serum) were 9.2% and 70.9%, respectively.
Regarding `CS(=O)(=O)c1ccc(-n2nc(C(=O)O)cc2-c2ccccc2)cc1`, the ED50 with Rattus norvegicus was found to be 104 mg/kg.
Take `CC(=O)OCO/N=[N+](\[O-])N(C)CCOC(=O)c1cc(-c2ccccc2)n(-c2ccc(S(C)(=O)=O)cc2)n1`: the figures for the Activity (in data set [1]; in the data set on Serum) were 7.7% and 67.5%, respectively.

The values above are taken from ChEMBL document CHEMBL1157426, “Diazen-1-ium-1,2-diolated nitric oxide donor ester prodrugs of 1-(4-methanesulfonylphenyl)-5-aryl-1H-pyrazol-3-carboxylic acids: synthesis, nitric oxide release studies and anti-inflammatory activities” (Bioorg Med Chem, 2008).
